Laboratory results reported in US6242482A, “Prostaglandin compounds and derivatives thereof, compositions containing the same and method of using the same for the treatment of congestive heart failure” (priority 2000, dated 2001).

Tests used:
[1] = tested on: Human Platelet Aggregation (collagen-induced); experiment: Anti-aggregatory response after incubation with aqueous vehicle (acetate buffer) (Example 4); format: cell-based
Method: (§1) Blood from healthy human volunteers who had not taken any medicine for at least 14 days was collected by venopuncture into 3.15% (w/v) tri-sodium citrate (9:1 v/v). The blood was centrifuged at 800 g for 15 minutes to produce PRP. The PRP was further centrifuged at 12,000 g for 1 minute to produce PPP.
(§2) Platelet aggregation was measured using a dual channel Payton aggregometer calibrated with PRP (0%) and PPP (100%) with respect to the degree of light transmission. Aliquots of PRP (500 μl) were added to siliconized cuvettes, stirred (1000 revs/min) and warmed to 37° C. The platelets were incubated for 1 minute to establish a stable baseline prior to testing. A submaximal concentration of the aggregating agent collagen (1 μg/ml) was added to the PRP and the platelet aggregation was monitored as the increase in light transmission observed over a 4 minute period.
(§3) After the incubation period, a 50 μl aliquot of the aqueous vehicle with the corresponding sample compound was added to fresh PRP (450 μl) for determination of anti-aggregatory activity following challenge with collagen. This experiment was repeated using PPP from at least three human volunteers. […] The data in both Tables 2 and 3 are shown as the mean and the standard error of n number of donors.

[2] = tested on: Human Platelet Aggregation (collagen-induced); experiment: Anti-aggregatory response after incubation with human PPP (Example 4); format: cell-based
Method: as §1, §2, §3

[3] = tested on: Human Platelet Aggregation (collagen-induced); experiment: Anti-aggregatory response after incubation with PPP (Example 8); format: cell-based; settings: up to 4 hours at 37° C
Method: as §1, with “PPP. A total of 12 volunteers donated blood for the study.” for “PPP.”
as §2, with “studied” for “measured”, “investigation.” for “testing.”
After the incubation period, an aliquot of the PPP or aqueous vehicle (50 μl) was added to fresh PRP (450 μl) for determination of anti-platelet activity. This experiment was repeated using PPP from at least three human volunteers for each compound.

[4] = tested on: mean arterial pressure and heart rate of anesthetized rats; experiment: Systemic hemodynamic effects, intravenous, anesthetized rats (Example 9); format: in vivo, rat (male Wistar)
Method: Among other effects, lowering of the blood pressure inside the blood vessels is beneficial for the treatment of congestive heart failure by reducing the vascular resistance of the blood flow which substantially reduces the work load imposed on the heart. […] This study involved the use of male Wistar rats anaesthetized with thiopentone sodium ([…]®, 120 mg kg^-1 i.p.). The trachea was cannulated to facilitate breathing.

In the case of `CCCCC[C@H](O)CC[C@@H]1[C@H]2Cc3cccc(OCC(=O)O)c3C[C@H]2C[C@H]1O` [Compound X], the “Platelet Aggregation (mean)” value ([1]; 3 ng/ml final, 1 Hour in acetate buffer) is reported as 107 % of Control, the “Platelet Aggregation (mean)” value ([1]; 3 ng/ml final, 4 Hours in acetate buffer) is reported as 94 % of Control and the “Platelet Aggregation (mean)” value ([1]; 3 ng/ml final, 15 Minutes in acetate buffer) is reported as 98 % of Control. For the same compound, the “Platelet Aggregation (mean)” value ([1]; 30 ng/ml final, 1 Hour in acetate buffer) was 8 % of Control, the “Platelet Aggregation (mean)” value ([1]; 30 ng/ml final, 4 Hours in acetate buffer) was 8 % of Control and the “Platelet Aggregation (mean)” value ([1]; 30 ng/ml final, 15 Minutes in acetate buffer) was 3 % of Control. For the same compound, the “effect of incubation with aqueous vehicle on anti-platelet activity” value ([1]; 15 minutes, 1 hour and 4 hours) was “no significant effect on the degree of anti-platelet activity”, the “Platelet Aggregation (mean)” value ([2]; 3 ng/ml final, 1 Hour in human PPP) was 100 % of Control and the “Platelet Aggregation (mean)” value ([2]; 3 ng/ml final, 4 Hours in human PPP) was 91 % of Control. The “Platelet Aggregation (mean)” value ([2]; 3 ng/ml final, 15 Minutes in human PPP) was 101 % of Control, the “Platelet Aggregation (mean)” value ([2]; 30 ng/ml final, 1 Hour in human PPP) was 1 % of Control and the “Platelet Aggregation (mean)” value ([2]; 30 ng/ml final, 4 Hours in human PPP) was 1 % of Control. For the same compound, the “Platelet Aggregation (mean)” value ([2]; 30 ng/ml final, 15 Minutes in human PPP) was 1 % of Control, the “effect of incubation with PPP on anti-platelet activity” value ([2]; 15 minutes, 1 hour and 4 hours) was “no significant effect on the anti-platelet activity” and the “effect of incubation with PPP on anti-platelet activity” value [3] was “not affected by incubation”. The “effective life of the fall in MAP” value ([4]; comparison of Compound 4 with Compound X (1 mg/kg i.v.)) was 30 min and the “fall in MAP” value ([4]; i.v., Compound X 1 mg/kg, Compound 4 1-10 mg/kg, others 3-30 mg/kg) was “similar, maximal fall in MAP to the highest dose of Compound 4”.
